Data on twelve compounds can be found in patent US9926293B2, “Multivalent RAS binding compounds” (THE TRUSTEES OF COLUMBIA UNIVERSITY IN THE CITY OF NEW YORK, priority 2014, dated 2018).

Data set [1] concerns Mouse embryonic fibroblasts (MEFs), null Hras and Nras, floxed Kras. The data set can be described thus: Growth inhibition of MEFs with floxed Kras locus. It counts as cell-based. Particulars: 600 nM, 6 days, vs DMSO. The procedure: In parallel, cells were treated with DMSO or 4OHT at 600 nM for 6 days. […] Cells were then lysed and treated with a pro-fluorescent caspase 3/7 substrate (rhodamine 110 bis-N-CBZ-L-aspartyl-L-gluramyl-L-valyl-aspartic acid amide) for 16 hours and measured.
All cell culture assays were incubated at 37° C., 5% CO2 in media containing Dulbecco's Modified Eagle Medium (DMEM) with 10% fetal bovine serum (FBS) and 1% penicillin-streptomycin (PS). 384-well format for EC50 determination: cells were trypsinized, counted, and seeded into 384-well plates at 1,000 cells/well. After 12-16 hours, compounds (as 50 mM stocks in DMSO) were arrayed in an 8- or 16-point dilution series in 384-well polypropylene plates. Compound solutions were transferred at a 1:5 dilution into the assay plates. After 48 hours, a 50% Alamar blue solution was added to a final concentration of 10% Alamar blue. After 6 hours of incubation, fluorescence intensity was determined using a Victor3 plate reader (Perkin Elmer) with a 535 nm excitation filter and a 590 nm emission filter. All compound measurements were performed in triplicate. For experiments performed in 6-well format, cells were trypsinized, counted, and seeded into 6-well plates at 200,000 cells per well 16 h prior to use. […] After 24 hours, cells were trypsinized and viability was determined using Trypan Blue exclusion assay. […]

Data set [2] in a line: Microsomal stability. In kind it is in vitro ADME. The note with it: pH 7.4; mouse liver microsomes, 0.5 μM. The procedure: Test compounds (0.5 μM) were incubated at 37° C. for up to 45 minutes in 50 mM of potassium phosphate buffer (pH 7.4) containing microsomal protein (0.5 mg/mL) and an NADPH generating system (0.34 mg/mL β-nicotinamide adenine dinucleotide phosphate (NADP), 1.56 mg/mL glucose-6-phosphate, 1.2 units/mL glucose-6-phosphate dehydrogenase). At 0, 5, 15, 30 and 45 minute intervals an aliquot was taken and quenched with acetonitrile (ACN) containing an internal standard. No-cofactor controls at 45 minutes were prepared. Following completion of the experimentation, the samples were analyzed by LC-MS/MS using a Shimadzu HPLC and an Applied Biosystem AP 14000.
On the technique in general: Liver microsomes are a subcellular fraction often used to study metabolism.

Data set [3] deals with T1, GppNHp-loaded KRASG12D (Homo sapiens, UniProt P01116, G12D).
T1 construct: made in house; host or cells: Escherichia coli BL21-Gold (DE3)
The data set can be described thus: Microscale thermophoresis, lysine NT-647-labeled GppNHp-loaded KRAS^G12D. In kind it is binding. Particulars: MST, GppNHp-bound KRAS^G12D, Table 6; read-out: KD. The procedure:
Microscale Thermophoresis
KRAS^G12D (250 μM) in 25 mM HEPES, 100 mM sodium chloride, 2 mM TCEP with 20 mM EDTA and 1 mM GppNHp was shaken at 220 rpm at 30° C. to remove the endogenous nucleotide, The solution was placed on ice for 2 minutes prior to the addition of 65 mM MgCl2. After an additional 10 minutes incubation on ice, 200 uL of a 10 uM solution of KRAS^G12D was combined with 200 uL of a 20 uM solution of NT-647-NHS-ester dye (from a 652.4 μM stock). The protein/dye mixture was rotated at 4° C. for 30 minutes, before being separated from the excess dye and buffer exchanged into 25 mM Tris, 100 mM sodium chloride, 2 mM TCEP, and 5 mM MgCl2 via a nap-5 column. The test compounds were arrayed across a 16-point dilution series consisting of 1.5% DMSO with 25 mM Tris, 100 mM NaCl, 2 mM TCEP, 5 mM MgCl2 and 0.05% tween-20. Thermophoretic movement of the fluorescently labeled protein with the inhibitors was performed using a Monolith NT.115 (Nanotemper Technologies). RALA and RHOA were purchased commercially from Abcam (RALA CN:ab102555, RHOA CN:ab101594).
In another set of experiments, the top D38-A59 two-site multivalent compounds were evaluated by a RAS pulldown using the RAS binding domain of CRAF (the top two hits are shown in FIG. 14D). This abrogation of binding between RAS and its effector protein was also evident in the RAS-RALGDS interaction (FIG. 14E). To quantify the binding of the two-site compounds to RAS, MST was performed again using lysine NT-647-labeled, GppNHp-loaded KRAS^G12D. […] The third (Y32) site was extended into (compound 34MEW95) using this scaffold.
Docking scores and dissociation constants for binding to GppNHp-bound KRAS^G12D (PDB:4DSN) were measured as set forth above for additional 2- and 3-site compounds by microscale thermophoresis.
In general terms: MST reads how a fluorescent partner responds to local heating, with and without ligand.

The target in data set [4] is T2, KRAS^G12D⋅BODIPY-GTP (Homo sapiens, UniProt P01116, G12D).
T2 construct: made in house; host or cells: Escherichia coli BL21-Gold (DE3)
The data set can be described thus: Nucleotide displacement assay with BODIPY-GTP (fluorescence polarization). It counts as binding. Particulars: 2.5 μM KRAS^G12D⋅BODIPY-GTP, 12 hours. The procedure: Nucleotide Displacement Assay
To investigate whether compounds were binding to the same site as GTP, a fluorescent polarization assay was implemented using fluorescently-labeled BODIPY-GTP as a probe. When BODIPY-GTP is free in solution, it has a low polarization. However, when BODIPY-GTP is bound to K-Ras protein, the polarization intensity is high. K-Ras G12D bound to BODIPY-GTP was incubated with different concentrations of ligand or unlabeled GTP or GDP in buffer containing 25 mM Tris-HCl, pH 8, 100 mM NaCl, 5 mM MgCl2, 1 mM EDTA, and 1 mM TCEP. The final concentration of K-Ras G12D bound to BODIPY-GTP in each well was 2.5 μM. The samples were incubated at 25° C. for 12 hours with gentle shaking to allow for the slow intrinsic nucleotide release reaction to take place. The change in fluorescence was measured on a Victor3 plate reader (Perkin Elmer) in 384-well black low-volume plates (Corning, Inc.). The BODIPY-GTP fluorophore was excited at 485 nm and emission was monitored at 535 nm.
A general note: Polarisation of emitted light reports the rotation of a fluorescent probe.

Data set [5] relates to caspases 3 and 7 in HT-1080 (NRAS^Q61K) cells. The data set can be described thus: Caspase 3/7 activation assay. It counts as cell-based. Particulars: staurosporine 5 μM, 24 hours. The protocol:
Caspase 3/7 Activation Assay
HT-1080 cells were seeded into 384-well plates at 1,000 cells/well. After 12-16 hours, compounds (as 50 mM stocks in DMSO) were arrayed in a dilution series in 384-well polypropylene plates. Compound solutions were transferred at a 1:5 dilution into the assay plates for a total volume of 40 μL. After 24 hours, 8 μL of a 1:100 solution of rhodamine 110 bis-(N-CBZ-1-aspartyl-1-glutamyl-1-valyl-aspartic acid amide) to lysis buffer (APO-1, Promega) was added and the plate was wrapped in aluminum foil and incubated at room temperature for 16 hours. Fluorescence intensity was then determined using a Victor3 plate reader (Perkin Elmer) with a 490 nm excitation filter and a 535 nm emission filter. A viability curve was performed in parallel with the same incubation time using the procedure described in the “cell viability assays” section.

Usually half-life stands for the time in which the quantity being followed falls by half. A lower half-life goes with fast loss. One may read the Kd as the equilibrium constant for the complex coming apart.

T1 sequence (P01116 1-169 isoform P01116-2 G12D): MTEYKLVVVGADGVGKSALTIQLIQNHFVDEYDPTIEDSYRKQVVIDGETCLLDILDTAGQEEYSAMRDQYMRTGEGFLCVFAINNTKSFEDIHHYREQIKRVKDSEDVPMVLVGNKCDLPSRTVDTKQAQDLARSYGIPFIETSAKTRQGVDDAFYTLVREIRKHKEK
T2 sequence (P01116 1-169 isoform P01116-2 G12D): as above

Turning to “4-hydroxytamoxifen [Compound 4OHT, reference compound]”, the growth inhibition in data set [1] is reported as 91%. In data set [2], `CCOc1ccc2ccc(=O)oc2c1` [7-ethoxycoumarin, reference compound] yielded a half-life at 0.5 μM of 3.9 min.

On to `O=C(NCCCn1cc(-c2c(C(F)(F)F)cccc2C(F)(F)F)c2cc(CN3CCN(Cc4cc(C(F)(F)F)cc(C(F)(F)F)c4)CC3)ccc21)C1CNCCN1` (stereo not shown) [Compound 32MEW56, N-(3-(5-((4-(3,5-bis(trifluoromethyl)benzyl)piperazin-1-yl)methyl)-3-(2,6-bis(trifluoromethyl)phenyl)-1H-indol-1-yl)propyl)piperazine-2-carboxamide], for which, in data set [3], the dissociation constant (Kd) is greater than 10000 µM. Still for that read-out and setting: the value for `COc1ccccc1-c1cn(CCCNC(=O)C2(N)CCNCC2)c2cccc(CN3CCN(CCOc4ccc(Cl)cc4)CC3)c12` [Compound 34MEW45, 4-amino-N-(3-(4-((4-(2-(4-chlorophenoxy)ethyl)piperazin-1-yl)methyl)-3-(2-methoxyphenyl)-1H-indol-1-yl)propyl)piperidine-4-carboxamide] was 1350 µM. For the compound `O=C(NCCCn1cc(-c2cccc(F)c2)c2c(CN3CCN(CCOc4ccc(Cl)cc4)CC3)cccc21)C1(NCc2ccc(OCc3ccc(F)cc3)c(Cl)c2)CCNCC1` [Compound 35MEW12, 4-((3-chloro-4-((4-fluorobenzyl)oxy)benzyl)amino)-N-(3-(4-((4-(2-(4-chlorophenoxy)ethyl)piperazin-1-yl)methyl)-3-(3-fluorophenyl)-1H-indol-1-yl)propyl)piperidine-4-carboxamide], the dissociation constant (Kd) in data set [3] was 36 µM.

As to `COc1cc(CN2CCN(Cc3ccc4c(c3)c(-c3ccc(OC)cc3OC)cn4CCCNC(=O)C3CNCCN3)CC2)cc(OC)c1` (stereo not shown) [Compound 36MEW3, N-(3-(5-((4-(3,5-dimethoxybenzyl)piperazin-1-yl)methyl)-3-(2,4-dimethoxyphenyl)-1H-indol-1-yl)propyl)piperazine-2-carboxamide], the dissociation constant Kd in data set [3] was determined as 230 µM. On the same count and under the same terms, next, `COc1cc(COc2ccc(CNC3(C(=O)NCCCn4cc(-c5ccc(OC(F)(F)F)cc5)c5cc(CN6CCN(Cc7c(Cl)cccc7Cl)CC6)ccc54)CCNCC3)cc2OC)cc(OC)c1` [Compound 43MEW63]: 26 µM. For the compound `O=C(NCCCn1cc(-c2ccc(OC(F)(F)F)cc2)c2cc(CN3CCN(Cc4c(Cl)cccc4Cl)CC3)ccc21)C1(NCc2ccc(OCc3cc(C(F)(F)F)cc(C(F)(F)F)c3)cc2)CCNCC1` [Compound 43MEW65, 4-((4-((3,5-bis(trifluoromethyl)benzyl)oxy)benzyl)amino)-N-(3-(5-((4-(2,6-dichlorobenzyl)piperazin-1-yl)methyl)-3-(4-(trifluoromethoxy)phenyl)-1H-indol-1-yl)propyl)piperidine-4-carboxamide], in data set [3], the Kd came out at 7.9 µM. Take `CC(C)Oc1ccccc1-c1ccc(CNC2(C(=O)NCCCn3cc(-c4ccc(OC(F)(F)F)cc4)c4cc(CN5CCN(Cc6c(Cl)cccc6Cl)CC5)ccc43)CCNCC2)nc1` [Compound 43MEW73, N-(3-(5-((4-(2,6-dichlorobenzyl)piperazin-1-yl)methyl)-3-(4-(trifluoromethoxy)phenyl)-1H-indol-1-yl)propyl)-4-(((5-(2-isopropoxyphenyl)pyridin-2-yl)methyl)amino)piperidine-4-carboxamide]: the Kd in data set [3] is 24 µM. For `Nc1nc2c(ncn2[C@@H]2O[C@H](COP(=O)(O)OP(=O)(O)O)[C@@H](O)[C@H]2O)c(=O)[nH]1` [GDP], in data set [4], the “displacement of BODIPY-GTP” value is reported as “can displace”. On to `Nc1nc2c(ncn2[C@@H]2O[C@H](COP(=O)(O)OP(=O)(O)OP(=O)(O)O)[C@@H](O)[C@H]2O)c(=O)[nH]1` [GTP], for which, in data set [4], the “displacement of BODIPY-GTP” value is reported as “can displace”.

In the case of `CN[C@@H]1C[C@H]2O[C@@](C)([C@@H]1OC)n1c3ccccc3c3c4c(c5c6ccccc6n2c5c31)C(=O)NC4` [staurosporine, reference compound], the “fluorescence of caspase 3/7 substrate” value in data set [5] (31MEW44 5 μM, 34MEW43 10 μM, 34MEW95 5 μM) was “Increased fluorescence”; in data set [5] (31MEW44 2.5 and 5 μM), “Increased fluorescence”.
